Laboratory results reported in PubChem BioAssay (NCI).
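Where inhibition never reached the appropriate level, the endpoint shown equals the highest concentration tested. Otherwise, values were interpolated linearly from a five-concentration, 48-hour dose response in 96-well plates. TGI: concentration producing complete growth inhibition.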

Legend:
Assay in all cases: growth of human tumour cells (NCI), 48 h
K-562 leukemia = tested on: K-562 leukemia
SF-268 CNS = tested on: SF-268 CNS
EKVX NSCLC = tested on: EKVX NSCLC
NCI-H522 lung = tested on: NCI-H522 lung
U251 CNS = tested on: U251 CNS
RPMI-8226 leukemia = tested on: RPMI-8226 leukemia
786-0 renal = tested on: 786-0 renal
TK-10 renal = tested on: TK-10 renal
LOX IMVI melanoma = tested on: LOX IMVI melanoma
UO-31 renal = tested on: UO-31 renal
SK-MEL-2 melanoma = tested on: SK-MEL-2 melanoma
HT29 colon = tested on: HT29 colon
SF-295 CNS = tested on: SF-295 CNS
OVCAR-8 ovarian = tested on: OVCAR-8 ovarian
MDA-N = tested on: MDA-N
A498 renal = tested on: A498 renal
A549 NSCLC = tested on: A549 NSCLC
IGROV1 ovarian = tested on: IGROV1 ovarian
HCC-2998 colon = tested on: HCC-2998 colon
NCI-H460 lung = tested on: NCI-H460 lung
HOP-92 NSCLC = tested on: HOP-92 NSCLC
MCF7 breast = tested on: MCF7 breast
NCI-H226 lung = tested on: NCI-H226 lung
SW-620 colon = tested on: SW-620 colon
DU-145 prostate = tested on: DU-145 prostate
HOP-62 NSCLC = tested on: HOP-62 NSCLC
UACC-257 melanoma = tested on: UACC-257 melanoma
OVCAR-5 ovarian = tested on: OVCAR-5 ovarian
KM12 colon = tested on: KM12 colon
PC-3 prostate = tested on: PC-3 prostate
OVCAR-3 ovarian = tested on: OVCAR-3 ovarian
MOLT-4 leukemia = tested on: MOLT-4 leukemia
SF-539 CNS = tested on: SF-539 CNS
OVCAR-4 ovarian = tested on: OVCAR-4 ovarian
RXF 393 renal = tested on: RXF 393 renal
HS 578T breast = tested on: HS 578T breast
SK-MEL-28 melanoma = tested on: SK-MEL-28 melanoma
NCI/ADR-RES ovarian = tested on: NCI/ADR-RES ovarian
T-47D breast = tested on: T-47D breast
SR leukemia = tested on: SR leukemia
SNB-75 CNS = tested on: SNB-75 CNS
M14 melanoma = tested on: M14 melanoma
HL-60(TB) leukemia = tested on: HL-60(TB) leukemia
NCI-H23 lung = tested on: NCI-H23 lung
MDA-MB-435 = tested on: MDA-MB-435
CAKI-1 renal = tested on: CAKI-1 renal
HCT-15 colon = tested on: HCT-15 colon
HCT-116 colon = tested on: HCT-116 colon
ACHN renal = tested on: ACHN renal
MDA-MB-231 breast = tested on: MDA-MB-231 breast
BT-549 breast = tested on: BT-549 breast
SK-MEL-5 melanoma = tested on: SK-MEL-5 melanoma
SNB-19 CNS = tested on: SNB-19 CNS
CCRF-CEM leukemia = tested on: CCRF-CEM leukemia
SK-OV-3 ovarian = tested on: SK-OV-3 ovarian
UACC-62 melanoma = tested on: UACC-62 melanoma
SN12C renal = tested on: SN12C renal
COLO 205 colon = tested on: COLO 205 colon

SMILES: COc1cc(/C=C2\N=C(c3ccccc3)N(C3Nc4cc5c(cc4S3)NC(N3C(=O)/C(=C/c4cc(OC)c(OC)c(OC)c4)N=C3c3ccccc3)S5)C2=O)cc(OC)c1OC (stereo not drawn)
- TGI (K-562 leukemia): > 100 µM
- TGI (SF-268 CNS): > 100 µM
- TGI (EKVX NSCLC): > 100 µM
- TGI (NCI-H522 lung): > 100 µM
- TGI (U251 CNS): > 100 µM
- TGI (RPMI-8226 leukemia): 95.1 µM
- TGI (786-0 renal): > 100 µM
- TGI (TK-10 renal): > 100 µM
- TGI (LOX IMVI melanoma): > 100 µM
- TGI (UO-31 renal): > 100 µM
- TGI (SK-MEL-2 melanoma): > 100 µM
- TGI (HT29 colon): > 100 µM
- TGI (SF-295 CNS): > 100 µM
- TGI (OVCAR-8 ovarian): > 100 µM
- TGI (MDA-N): > 100 µM
- TGI (A498 renal): > 100 µM
- TGI (A549 NSCLC): > 100 µM
- TGI (IGROV1 ovarian): > 100 µM
- TGI (HCC-2998 colon): > 100 µM
- TGI (NCI-H460 lung): > 100 µM
- TGI (HOP-92 NSCLC): > 100 µM
- TGI (MCF7 breast): > 100 µM
- TGI (NCI-H226 lung): > 100 µM
- TGI (SW-620 colon): > 100 µM
- TGI (DU-145 prostate): > 100 µM
- TGI (HOP-62 NSCLC): > 100 µM
- TGI (UACC-257 melanoma): > 100 µM
- TGI (OVCAR-5 ovarian): > 100 µM
- TGI (KM12 colon): > 100 µM
- TGI (PC-3 prostate): > 100 µM
- TGI (OVCAR-3 ovarian): > 100 µM
- TGI (MOLT-4 leukemia): > 100 µM
- TGI (SF-539 CNS): > 100 µM
- TGI (OVCAR-4 ovarian): > 100 µM
- TGI (RXF 393 renal): > 100 µM
- TGI (HS 578T breast): > 100 µM
- TGI (SK-MEL-28 melanoma): > 100 µM
- TGI (NCI/ADR-RES ovarian): > 100 µM
- TGI (T-47D breast): > 100 µM
- TGI (SR leukemia): > 100 µM
- TGI (SNB-75 CNS): > 100 µM
- TGI (M14 melanoma): > 100 µM
- TGI (HL-60(TB) leukemia): > 100 µM
- TGI (NCI-H23 lung): > 100 µM
- TGI (MDA-MB-435): > 100 µM
- TGI (CAKI-1 renal): > 100 µM
- TGI (HCT-15 colon): > 100 µM
- TGI (HCT-116 colon): > 100 µM
- TGI (ACHN renal): > 100 µM
- TGI (MDA-MB-231 breast): > 100 µM
- TGI (BT-549 breast): > 100 µM
- TGI (SK-MEL-5 melanoma): > 100 µM

SMILES: C#CC(O)/C=C/CCCCCCC#CC/C=C\CC#CCCCCCC/C=C/C(O)C#C (stereo not drawn)
- TGI (K-562 leukemia): 9.67 µM
- TGI (SF-268 CNS): 10.8 µM
- TGI (EKVX NSCLC): 5.23 µM
- TGI (U251 CNS): 26 µM
- TGI (SNB-19 CNS): 24.8 µM
- TGI (786-0 renal): 5.23 µM
- TGI (TK-10 renal): 11 µM
- TGI (CCRF-CEM leukemia): 0.722 µM
- TGI (LOX IMVI melanoma): 0.0282 µM
- TGI (UO-31 renal): 0.915 µM
- TGI (SK-MEL-2 melanoma): 6.8 µM
- TGI (HT29 colon): 6.86 µM
- TGI (SF-295 CNS): 26.9 µM
- TGI (OVCAR-8 ovarian): 13.1 µM
- TGI (MDA-N): 7.52 µM
- TGI (A498 renal): 9.06 µM
- TGI (A549 NSCLC): 10.2 µM
- TGI (IGROV1 ovarian): 2.17 µM
- TGI (HCC-2998 colon): 3.39 µM
- TGI (NCI-H460 lung): 16.3 µM
- TGI (SK-OV-3 ovarian): 32.1 µM
- TGI (HOP-92 NSCLC): 5.57 µM
- TGI (MCF7 breast): 25.9 µM
- TGI (NCI-H226 lung): 14 µM
- TGI (SW-620 colon): 7.3 µM
- TGI (DU-145 prostate): 8.99 µM
- TGI (UACC-62 melanoma): 7.38 µM
- TGI (HOP-62 NSCLC): 4.72 µM
- TGI (UACC-257 melanoma): 8.57 µM
- TGI (OVCAR-5 ovarian): 7.86 µM
- TGI (KM12 colon): 5.29 µM
- TGI (PC-3 prostate): 24.4 µM
- TGI (OVCAR-3 ovarian): 7.99 µM
- TGI (MOLT-4 leukemia): 0.371 µM
- TGI (SF-539 CNS): 41.2 µM
- TGI (OVCAR-4 ovarian): 10.1 µM
- TGI (RXF 393 renal): 28.3 µM
- TGI (HS 578T breast): 15 µM
- TGI (SK-MEL-28 melanoma): 4.58 µM
- TGI (NCI/ADR-RES ovarian): 8.26 µM
- TGI (T-47D breast): 5.85 µM
- TGI (SR leukemia): 18 µM
- TGI (SNB-75 CNS): 20.9 µM
- TGI (M14 melanoma): 2.26 µM
- TGI (HL-60(TB) leukemia): 3.86 µM
- TGI (SN12C renal): 4.02 µM
- TGI (NCI-H23 lung): 3.53 µM
- TGI (MDA-MB-435): 5.4 µM
- TGI (CAKI-1 renal): 5.98 µM
- TGI (COLO 205 colon): 4.29 µM
- TGI (HCT-15 colon): 6.94 µM
- TGI (HCT-116 colon): 4.02 µM
- TGI (ACHN renal): 13.7 µM
- TGI (MDA-MB-231 breast): 8.9 µM
- TGI (BT-549 breast): 9.61 µM
- TGI (SK-MEL-5 melanoma): 3.14 µM
